According to patent publication US20040204596A1, “Method for the preparation of unsaturated hydroxy fatty acids and their esters, their use in pharmaceutical and/or cosmetic preparations” (Pierre Potier, priority 2001, published 2004):
Where “and” joins values, the source holds several entries; their conditions need not be identical. Equal entries are not always repeated. Each block holds one molecule with its values, some of them ahead of it.

Assays:
collagenase [1] = assay: Anticollagenase activity on frozen sections of human skin (picrosirius staining); assay type: biochemical; parameters: key to Alteration of the collagen structure: 0: An absence of alteration of the collagen structure; 1: somewhat; 2: markedly to very strongly altered collagen structure; conditions: for Alteration of the collagen structure: frozen human skin sections, 2 hours at 37° C.; for inhibition of the activity of collagenase: collagenase 30 U/ml
Procedure: This example was performed with different solutions at concentrations of 1 and 2% of active principles in comparison with the excipient alone, buffer controls and collagenase. The active principles used were DHA, the 2-dimethylamino ethyl ester of trans-10-hydroxy-2-decenoic acid (ML40) and the glycerol ester of trans-10-hydroxy-2-decenoic acid (GM).
Frozen 5-μm-thick sections from a mammary plasty of a person were placed on histological slides (4 sections per slide). Each solution was tested on one slide.
The sections were covered with the solutions to be tested then incubated for 2 hours at 37° C. in a humid chamber. The solutions were eliminated by repeated rinsings and the sections were stained with picrosirius. Microscopic examination was performed with the 2.5 objective and paper photographs were taken with Kodak Gold 100 ASA film.
Table 2 summarizes the results of alteration of the collagen structure as a function of the tested solution. An absence of alteration of the collagen structure is indicated by 0 while a somewhat or markedly to very strongly altered collagen structure is indicated, respectively, by 1 or 2.

collagenase [2] = assay: Anticollagenase activity on human skin explants maintained in survival state; assay type: cell-based
Procedure: The study was performed on a 5% GM product in comparison with the excipient (hydrocerin), a positive control and a control in the presence of collagenase at 100 U/ml.
Hydrocerin was used as the excipient for the preparation of the product to be applied. This study was performed twice. […] In the second study, the study time was extended and the collection of the explants was performed on Day 2 and on Day 4.
Human skin explants prepared and distributed into 16 lots of three explants each were placed in survival state according to Table 3.
The product was applied on Day 0 and on Day 2 at the rate of 20 mg per explant and collagenase was incorporated into the culture medium of the […].
Three explants of each lot were collected on Day 2 and on Day 4, fixed in ordinary Bouin's fixative and subjected to histological processing.
The histological study comprised:
impregnation in paraffin,
staining with Sirius red F3B,
calorimetric measurements of the collagen by image analysis,
comparison with photographs.
For this reason, the survival, the contact and the application were extended to Day 4. The collagenase action was monitored in two ways: intensity of the coloration of the collagen network and thickness of the dermal structure. With this study, penetration of the active principle and its inhibitory activity were correlated in relation to collagenase.

adipose tissue explants = assay: Lipolytic activity on adipose tissue explants ex vivo (lipids released in culture medium, TLC; histology); assay type: cell-based
Procedure: DHA was incorporated in the culture medium at a final concentration of 0.25 and 0.5%. After 8 days of contact, the activity was evaluated by quantitative determination of the lipids distributed in the culture medium.
Twelve adipose tissue explants (plasty P202-AB31) were prepared and placed in survival state in BEM medium (BIO-EC's Explants Medium). The explants were distributed in 4 lots of 3 explants:
one positive control lot (caffeine at 0.1%),
two product lots (DHA at 0.25 and 0.5%).
On Day 0, the explants were placed in survival state in 2 ml of culture medium, in which the product to be tested was incorporated.
This treatment was renewed on Day 2, Day 4 and Day 6.
On Day 2, Day 4, Day 6 and Day 8, the culture medium was collected. For each explant, the media collected on Day 2, Day 4, Day 6 and Day 8 were grouped together in the same tube and preserved at −20° C. for quantitative determination of the lipids.
On Day 8, the adipose tissue explants were collected and fixed in ordinary Bouin's fixative for the histological study.
The fixed adipose tissue explants were dehydrated, impregnated with paraffin, but in block form, sectioned and stained with Masson's trichrome.
After extraction of the culture medium, the lipids were separated and quantitatively determined by TLC.
The viability and morphology of the adipocytes was monitored by the histologic study.
The lipolytic activity was evaluated by analysis of the proportions of monoglycerides, diglycerides, triglycerides and free fatty acids.
The results are expressed in mass (μg) of each category of lipid released in the culture medium during the 8 days of treatment.
Table 5 below represents the statistical analysis using Student's test of the results of the quantitative determination of the fatty acids released in the culture medium during the 8 days of treatment.

[3] = test system: cutaneous 5-alpha-reductase; assay: Inhibition of cutaneous 5-alpha-reductase activity; assay type: biochemical
Excerpt: DHA is capable of inhibiting cutaneous 5-alpha-reductase, the enzyme responsible for the production of di-hydro-testosterone. Treatment with 0.1% of DHA and treatment with 0.5% of DHA reduced by about 70% and about 90%, respectively, the 5-alpha-reductase activity compared to an untreated control. This inhibition results in a considerable reduction of the sebum level.

[4] = 1% active principle + collagenase 30 U/ml
[5] = 1% active principle, no collagenase
[6] = 2% active principle + collagenase 30 U/ml
[7] = 2% active principle, no collagenase
[8] = product containing 5% of GM in hydrocerin, 20 mg per explant on Day 0 and Day 2, collagenase 100 U/ml, Day 4
[9] = caffeine 0.1%, 8 days of treatment
[10] = DHA at 0.25%, 8 days of treatment
[11] = DHA at 0.5%, 8 days of treatment

SMILES: O=C(/C=C/CCCCCCCO)OCC(O)CO (stereo not drawn) [GM, glycerol ester of trans-10-hydroxy-2-decenoic acid]
Alteration of the collagen structure (collagenase [1]; [4]): 2 | Alteration of the collagen structure (collagenase [1]; [5]): 0 | Alteration of the collagen structure (collagenase [1]; [6]): 1 | Alteration of the collagen structure (collagenase [1]; [7]): 0 | inhibition of the activity of collagenase (collagenase [1]; 2%): only slightly inhibited | anticollagenase activity (collagenase [2]; 5% GM product, human skin explants, collagenase 100 U/ml): pronounced anticollagenase activity | degradation of the collagen bundles (collagenase [2]; [8]): very slightly degraded | thickness of the dermis (collagenase [2]; [8]): diminished slightly

SMILES: c1cnc2c(c1)ccc1cccnc12 [phenanthroline, reference compound]
dermal structure (collagenase [2]; positive control + collagenase 100 U/ml, Day 4): the same as that of the controls without collagenase

SMILES: Cn1c(=O)c2c(ncn2C)n(C)c1=O [Caffeine, caffeine, reference compound]
% augmentation/Control of fatty acids released (adipose tissue explants; [9]): 2780.6% | Diglycerides released in the culture medium, Mean (adipose tissue explants; [9]): 0.02 µg | Fatty acids released in the culture medium, Mean (adipose tissue explants; [9]): 27.99 µg | Monoglycerides released in the culture medium, Mean (adipose tissue explants; [9]): 1.22 µg | Triglycerides released in the culture medium, Mean (adipose tissue explants; [9]): 197.34 µg | fatty acids released in the culture medium, individual explants (adipose tissue explants; [9]): 33.89 µg and 24.10 µg and 25.97 µg | % augmentation/Control of fatty acids released (adipose tissue explants; caffeine 0.1%, 8 days of treatment, listed as caffeine): 2780% | augmentation factor of fatty acids released compared to the untreated control (adipose tissue explants; caffeine at 0.1%, 8 days of treatment): about 29

Further lines, with some results ahead:

Alteration of the collagen structure (collagenase [1]; [4]): 2 | Alteration of the collagen structure (collagenase [1]; [5]): 0 | Alteration of the collagen structure (collagenase [1]; [6]): 1 | Alteration of the collagen structure (collagenase [1]; [7]): 0 | inhibition of the activity of collagenase (collagenase [1]; 2%): only slightly inhibited
SMILES: CN(C)CCOC(=O)/C=C/CCCCCCCO [ML40, 2-dimethylamino ethyl ester of trans-10-hydroxy-2-decenoic acid]

Alteration of the collagen structure (collagenase [1]; [4]): 0 | Alteration of the collagen structure (collagenase [1]; [5]): 0 | inhibition of the activity of collagenase (collagenase [1]; 1%): inhibited completely | Alteration of the collagen structure (collagenase [1]; [6]): 0 | Alteration of the collagen structure (collagenase [1]; [7]): 0 | inhibition of the activity of collagenase (collagenase [1]; 2%): inhibited completely | reduction of 5-alpha-reductase activity compared to an untreated control ([3]; treatment with 0.1% of DHA): about 70% | reduction of 5-alpha-reductase activity compared to an untreated control ([3]; treatment with 0.5% of DHA): about 90%
SMILES: O=C(O)/C=C/CCCCCCCO [DHA, trans-10-hydroxy-2-decenoic acid]
lipolytic activity (Student's test) (adipose tissue explants; DHA applied at 0.25%): significant lipolytic activity | lipolytic activity (Student's test) (adipose tissue explants; DHA applied at 0.5%): significant lipolytic activity | % augmentation/Control of fatty acids released (adipose tissue explants; [10]): 1075% and 1075.6% | Diglycerides released in the culture medium, Mean (adipose tissue explants; [10]): 0.00 µg | Fatty acids released in the culture medium, Mean (adipose tissue explants; [10]): 11.42 µg | Monoglycerides released in the culture medium, Mean (adipose tissue explants; [10]): 3.64 µg | Triglycerides released in the culture medium, Mean (adipose tissue explants; [10]): 156.15 µg | fatty acids released in the culture medium, individual explants (adipose tissue explants; [10]): 9.95 µg and 11.67 µg and 12.66 µg | % augmentation/Control of fatty acids released (adipose tissue explants; [11]): 1087% and 1086.8% | Diglycerides released in the culture medium, Mean (adipose tissue explants; [11]): 0.00 µg | Fatty acids released in the culture medium, Mean (adipose tissue explants; [11]): 11.53 µg | Monoglycerides released in the culture medium, Mean (adipose tissue explants; [11]): 7.06 µg | Triglycerides released in the culture medium, Mean (adipose tissue explants; [11]): 202.56 µg | fatty acids released in the culture medium, individual explants (adipose tissue explants; [11]): 12.81 µg and 11.64 µg and 10.14 µg | maximum effective dose (lipolytic effect) (adipose tissue explants; adipose tissue explants, 8 days): ~0.25%
